Here are results for five compounds from patent publication US6376504B1 (Parker Hughes Institute, priority 1998, dated 2002).

Data set [1] concerns human sperm. Kind of data set: Sperm immobilizing activity, concentration-dependent, CASA. Format: cell-based. The settings on record: for pEC50: Homo sapiens, Sperm, read-out: Spermicidal activity EC50 (sperm motility); for effect on sperm motility: concentrations as high as 500 μM. The procedure:
All donor sperm specimens were obtained after informed consent and in compliance with the guidelines of the Hughes Institute Institutional Review Board. Motile sperm (≧10×10^6/ml), were suspended in 1 ml of Biggers, whitten, and Whittingam's medium (BWW) containing 25 mM HEPES (Irvine Scientific, Santa Ana, Calif.), and 0.3% BSA in the presence and absence of serial two-fold dilutions of test substance (500 μM to 31.2 μM) in 1% DMSO. The stock solutions of NNIs were prepared in DMSO (100 mM) and diluted in assay medium to yield the desired concentrations. Corresponding volume of DMSO (1%) was added to control tubes. N-9 was diluted in BWW-0.3% BSA (pH 7.4) to yield the desired concentrations (31.2 μM to 500 μM). After 3 hours of incubation at 37° C., the percentage of motile sperm was evaluated by CASA by procedures as described in D'Cruz et al., BIOL REPROD, 58:1515-1526, (1998); and D'Cruz et al., MOL HUM REPROD, 4:683-693 (1998). The percent motilities were compared with sham-treated control suspensions of motile sperm. The spermicidal activity of test compounds was expressed as the EC50 (the final concentration of the compound in medium that decreases the proportion of motile sperm by 50%).
(§1) For CASA, 4 μl of each sperm suspension were loaded into two 20-μm Microcell chambers in a counting chamber at 37° C. At least 5-8 fields per chamber were scanned for analysis using a Hamilton Thome Integrated Visual Optical System (IVOS), version 10 instrument (Hamilton Thorne Research Inc., Danvers, Mass.). Each field was recorded for 30 seconds. The computer calibrations were set at 30 frames at a frame rate of 30/second. Other settings were as follows: minimum contrast 8; minimum size 6; low-size gate, 1.0; high-size gate, 2.9; low-intensity gate, 0.6; high-intensity gate, 1.4; phase-contrast illumination; low path velocity at 10 μm/s, and threshold straightness at 80%; and magnification factor, 1.95.
(§2) The sperm kinematics parameters that were determined included numbers of motile (MOT) and progressively (PRG) motile sperm; curvilinear velocity (VCL; a measure of the total distance traveled by a given sperm during the acquisition divided by the time elapsed); average path velocity (VAP; the spatially averaged path that eliminates the wobble of the sperm head), straight line velocity (VSL; the straight-line distance from beginning to end of track divided by time taken), beat cross frequency (BCF; frequency of sperm head crossing sperm average path), the amplitude of lateral head displacement (ALH; the mean width of sperm head oscillation), and the derivatives, straightness (STR=VSL/VAP×100) and linearity (LIN=VSL/VCL×100; departure of sperm track from a straight line). Data from each individual cell track were recorded and analyzed. At least 200 motile sperm were a nalyzed for each aliquot sampled.

Data set [2] relates to HTLVIIIB strain of HIV-1. The experiment in a line: p24 antigen production in HIV-1 (HTLVIIIB) infected PBMCs. The settings on record: Human immunodeficiency virus 1, PBMC.
Description: The HTLVIIIB strain of HIV-1 was propagated in CCRF-CEM cells and the virus stocks obtained from cell-free supernatants of infected cells were titered using MT-2 cells. Cell-free supernatants were harvested and frozen in 1 ml aliquots at −70° C. Titration of the stock virus was performed using MT-2 cells and the cytopathic effect of the virus used in this study was typical of HIV-1 on MT-2 cells.
Cells were cultured for 7 days in 96-well microtiter plates (100 μl/well; 2×10^6 cells/ml, triplicate wells) in the presence and absence of various concentrations (0.001 μM to 100 μM) of the anti-HIV agents. Cells from non-infected controls were handled in the same way except the virus was omitted from the preparation. Aliquots of culture supernatants were removed from the wells on the 7th day after infection for RT assays and p24 antigen, as previously described in the following references: Erice et al., ANTIMICROB AG CHEMOTHER, 37:835-838 (1993); Uckun et al., ANTIMICROB AGENTS CHEMOTHER, 42:383-388 (1998); and Zarling et al., Nature 347:92-95 (1990).
The p24 enzyme immunoassay was the unmodified kinetic assay available commercially (Coulter Corporation/Immunotech, Inc., Westbrook, Me.). The assay uses a murine monoclonal antibody to the HIV core protein coated onto microwell strips to which the antigen present in the test culture supernatant sample binds. […] The plates were read on a ELISA reader (Molecular Devices, Sunnyvale, Calif.) at 650 nm and p24 levels, expressed as ng/ml, were calculated against known standards supplied by Coulter/Immunotech, Inc. Percent viral inhibition was calculated by comparing the p24 values for the test substance-treated infected cells with the p24 values for untreated infected cells (i.e., virus controls).
Percent inhibition of virus replication was calculated by comparing the p24 antigen values or RT activity from the test drug-treated infected cells with p24 antigen values or RT activity from untreated infected cells. The anti-HIV activity of compounds was expressed as the IC50 values, calculated from the dose-response curves, and defined as the drug concentration that decreases the HIV-1 RT activity or p24 antigen production in HIV-1 infected PBMCs, by 50%.
The target in data set [3] is purified recombinant HIV RT (Human immunodeficiency virus type 1 group M subtype B, UniProt P04585). Kind of data set: RT inhibitory activity against purified recombinant HIV RT (cell-free Quan-T-RT scintillation proximity assay).
Description: In the assay, a DNA/RNA primer/template is bound to SPA beads via a biotin/streptavidin linkage. The primer DNA is a 16-mer oligo(T) which has been annealed to a poly(rA) template. The primer/template is bound to a streptavidin-coated SPA bead. ^3H-TTP is incorporated into the primer by reverse transcription. In brief, ^3H-TTP, at a final concentration of 0.5 Ci/sample was diluted in RT assay buffer (49.5 mM Tris-HCl, pH 8.0, 80 mM KCl, 10 mM MgCl2, 10 mM DTT, 2.5 mM EGTA, 0.05% Nonidet-P-40), and added to annealed DNA/RNA bound to SPA beads. The compound being tested was added to the reaction mixture at 0.001 μM-100 μM concentrations. […] The reaction was stopped by addition of 0.2 ml of 120 mM EDTA. The samples were counted in an open window using a Beckman LS 7600 instrument (Beckman Instruments, Fullerton, Calif.).
Data set [4] relates to human sperm. Kind of data set: Time-dependent sperm immobilization and sperm kinematic parameters, CASA. Format: cell-based. The settings on record: 1 mM. The procedure: To test the effect of duration of incubation on SIA of spermicidal NNIs, motile fractions of sperm (10^7/ml) were incubated at 37° C. in BWW-0.3% BSA in the presence of 1 mM F-PBT, S-DABO in 1% DMSO or 1% DMSO alone as vehicle control. At timed intervals of 5 or 10 minutes, duplicate aliquots (4-μl) were transferred to two 20 μm Microcell chambers (Conception Technologies) and sperm motility was assessed by CASA for a duration of 60 minutes.
as §1, §2

The test system of data set [5] is normal human ectocervical epithelial cells (CrEC 4627). Kind of data set: MTT cell proliferation assay, ectocervical epithelial cells. The class given is cell-based. The settings on record: for pIC50: Homo sapiens, Epithelial cell, read-out: IC50 ectocervical epithelial cells; for SI (Selectivity Index) ectocervical epithelial cells: ratio of IC50 to EC50 (sperm). The procedure:
(§3) Normal human ectocervical (CrEC 4627) and endocervical epithelial cells (CrEC-En 4312) were obtained from Clonetics, (San Diego, Calif.) and propagated in T-150 cm^2 tissue culture flasks (Corning Corp., Corning, N.Y.) in small airway epithelial cell basal medium (Clonetics) supplemented with 50 μg/ml BPE, 0.5 μg/ml hydrocortisone, 0.5 μg/ml hEGF, 0.1 μg/ml retinoic acid, […] trasferrin, 5 μg/ml insulin, 5 μg/ml epinephrine, and 0.5 mg/ml BSA-FAF.
(§4) Briefly, cells were harvested with 0.125% (w/v) trypsin-0.02% EDTA (GIBCO) from exponential-phase maintenance cultures and centrifuged (300 g×5 minutes). After suspension and counting, cells were dispensed within triplicate 96-well tissue culture plates in 100 μl volumes. […] NNIs were reconstituted in DMSO to a concentration of 100 mM. […] Control wells with medium containing 0.25% of DMSO alone were included as controls. Culture plates were then incubated for 24 hour before adding 10 μl of MTT solution (5 mg/ml in PBS) to each well. Wells containing only medium and MTT were used as control for each plate. The tetrazolium/formazan reaction was allowed to proceed for 4 hours at 37° C., and then 100 μl of the solubilization buffer (10% sodium dodecyl sulfate in 0.1% HCl) was added to all wells and mixed thoroughly to dissolve the dark blue formazan crystals.
(§5) After an overnight incubation at 37° C., the optical densities (OD) at 540 nm were measured using a 96-well multiscanner autoreader with the solubilization buffer serving as blank, To translate the OD540 values into the number of live cells in each well, the OD540 values were compared to those on standard OD540-versus-cell number curves generated for each cell line. The percent survival was calculated using the formula: % survival=Live cell number [test]/Live cell number [control]×100. All assays were run in triplicate and the results were expressed as IC50 values. The IC50 was defined as the concentration required for 50% reduction in cell survival.

In data set [6] the test system is normal human endocervical epithelial cells (CrEC-En 4312). Kind of data set: MTT cell proliferation assay, endocervical epithelial cells. The class given is cell-based. The settings on record: for pIC50: Homo sapiens, Epithelial cell, read-out: IC50 endocervical epithelial cells; for SI (Selectivity Index) endocervical epithelial cells: ratio of IC50 to EC50 (sperm). As for the experimental part:
as §3, §4, §5

In data set [7] the test system is human sperm acrosomal membrane. Kind of data set: Sperm acrosomal membrane integrity, confocal laser scanning microscopy (FITC-Pisum sativum lectin). The settings on record: for acrosome status in confocal images: 500 μM, 6 hours. The class given is cell-based. The procedure: The percentages of sperm with an intact acrosome following a 6 hour treatment with and without increasing concentrations (31.2 μM to 500 μM) o f th e three NNIs (S-DABO, F-PBT and D-PBT in comparison to N-9 were evaluated by CLSM. Ethanol permeabilized and airdried sperm smears were stained sequentially with the three fluorescent markers, FITC-Pisum sativum lectin, TOTO-3 iodide, and Nile red (Molecular Probes, Eugene, Oreg.) because their targets are different (acrosome, nucleus, and membrane lipid respectively). Samples were examined under a BioRad MRC-1024 Laser Scanning Confocal Microscope (BioRad Laboratories, Hercules, Calif.) equipped with a krypton/argon mixed gas laser (excitation lines 488, 568, and 647 nm) and mounted on a Nikon Eclipse E800 series upright microscope. The fluorescence emission of fluorescein, TOTO-3 iodide, and Nile red from the acrosomal region, nucleus, and the plasma membrane of sperm after ethanol permteabilization were si multan eously detected using the […], and 680 DF32 emission/filter, respectively. Confocal images were obtained using a Nikon 100×(NA 1.35) objective lens and Kalman collection filter. Digitized images were saved on a Jaz disk (Iomega Corporation, Roy, UT) and process ed using Lasersharp Bio-Rad) with the Adobe Photoshop software (Adobe Systems, Mountain View, Calif.). Final images were printed on a Fuji Pictrography 3000 (Fuji Photo Film Co., Tokyo, Japan) color printer.

The mark [8] stands for this setting: 3 hours incubation at 37° C., CASA.
Setting [9] is: 168 h, read-out: IC50 p24 (HTLVIIIB).
[10] abbreviates: in Homo sapiens, read-out: IC50[p24], HIV replication in PBMCs.

pEC50, pIC50: −log10 of the molar value. “Also recorded” adds a separate entry of the source. Like-named read-outs stand apart in the source and are kept apart here. Some results are limits rather than exact numbers.

As for `COc1ccc(OC)c(CCNC(=S)Nc2ccc(Br)cn2)c1` [D-PBT, N-[2-(2,5-dimethoxyphenethyl)]-N′-[2-(5-bromopyridyl)]-thiourea], the “effect on sperm motion parameters (PRG, VCL, VAP, VSL, STR, LIN, BCF, ALH)” value in data set [1] (CASA) was “did not alter the sperm motion parameters”. Also, the pEC50 – broadly, the EC50 on a negative log10 scale, so that one unit is a factor of ten – in data set [1] (setting [8]) is less than 3.30. Further, in data set [1], the “effect on sperm motility” value is reported as “did not affect sperm motility”. Besides, the results for the negative-log IC50 (pIC50) in data set [2] (setting [9]), in data set [2] (setting [10]) and in data set [3] were more than 9.00, more than 9.00 and 7.00, respectively.

In the case of `Fc1ccccc1CCNC(=S)Nc1ccc(Br)cn1` [F-PBT, N-[2-(2-fluorophenethyl)]-N′-[2-(5-bromopyridyl)]-thiourea], in data set [1], the “spermicidal activity (in words)” value was “concentration- and time-dependent spermicidal activity”. The pEC50 in data set [1] (3 h) is 3.83. In data set [4] (37° C.), the “time required for 50% motility loss of progressively motile sperm” value amounted to 10 min. In addition, the “beat cross frequency (BCF) and amplitude of lateral head displacement (ALH)” value in data set [4] (time-dependent, 60 minutes) is “relatively stable”. Also, the “linearity (LIN) and straightness (STR)” value in data set [4] (time-dependent, 60 minutes) was “remained relatively constant”. The “movement characteristics of surviving sperm (VCL, VAP, VSL)” value in data set [4] (time-dependent, 60 minutes) was “significant changes”. For the same compound, the pIC50 – broadly, the IC50 on a negative log10 scale, so that one unit is a factor of ten – in data set [5] (24 h) was less than 3.00; in data set [5] it was less than 3.00; in data set [6] (24 h), less than 3.00; in data set [6] it was less than 3.00; in data set [2] (setting [9]), more than 9.00; in data set [2] (setting [10]) it was more than 9.00. Also, the negative logarithm of the IC50 (pIC50) in data set [3] is 6.40. The “SI (Selectivity Index) ectocervical epithelial cells” value in data set [5] was more than 6.8. Moreover, in data set [6], the “SI (Selectivity Index) endocervical epithelial cells” value is more than 6.8. Also, the “acrosome status in confocal images” value in data set [7] was “acrosomes remained intact; also recorded: None of the FIGS. 5B, 5C, or 5D show increased acrosome reaction”.

For the compound `S=C(NCCc1ccccn1)Nc1ccc(Br)cn1` [Trovirdine, reference compound], in data set [1] (CASA), the “effect on sperm motion parameters (PRG, VCL, VAP, VSL, STR, LIN, BCF, ALH)” value is listed as “did not alter the sperm motion parameters”. Besides, the pEC50 in data set [1] (3 h) is less than 3.30. The “effect on sperm motility” value in data set [1] is on record as “did not affect sperm motility”. In data set [2] (setting [9]), the pIC50 was 8.15.

As to `CSCSc1nc(Cc2ccccc2)c(C(C)C)c(=O)[nH]1` [S-DABO, 5-isopropyl-2-[(methylthiomethyl)thio]-6-(benzyl)-pyrimidin-4-(1H)-one], the “spermicidal activity (in words)” value in data set [1] was “concentration- and time-dependent spermicidal activity”. Also, the pEC50 in data set [1] (setting [8]) was 3.69. Further, the pIC50 in data set [5] (24 hours treatment, MTT) was less than 2.40; in data set [5] (MTT dose survival curves) it was less than 2.40; in data set [6] (24 hours treatment, MTT), less than 2.40; in data set [6] (MTT dose survival curves) it was less than 2.40; in data set [2] (setting [9]) it was more than 9.00; in data set [2] (setting [10]) it was more than 9.00. Also, the negative-log IC50 (pIC50) in data set [3] was 5.21. For the same compound, the “SI (Selectivity Index) ectocervical epithelial cells” value in data set [5] was more than 19.8. Also, the “SI (Selectivity Index) endocervical epithelial cells” value in data set [6] is reported as more than 19.8. The “acrosome status in confocal images” value in data set [7] is listed as “acrosomes remained intact; also recorded: None of the FIGS. 5B, 5C, or 5D show increased acrosome reaction”.

For `CCCCCCCCCc1ccc(OCCOCCOCCOCCOCCOCCOCCOCCOCCO)cc1` [Compound N-9, nonoxynol-9, reference compound], the pEC50 in data set [1] (3 h) was 4.09. The pIC50 in data set [5] (24 h) was 4.82; in data set [6] (24 h) it was 4.96; in data set [2] (setting [9]), 5.66. Also, the “SI (Selectivity Index) ectocervical epithelial cells” value in data set [5] is 0.18. The “SI (Selectivity Index) endocervical epithelial cells” value in data set [6] was 0.13. The “acrosome status in confocal images” value in data set [7] is “no green fluorescence; also recorded: only acrosome-reacted sperm”. In addition, the “acrosomal staining (FIG. 5A)” value in data set [7] (after 6 hours of incubation) is given as “complete loss of acrosomal staining”.
